Results on 22 compounds are retold here after patent US8642609B2, “Modulators of ATP-binding cassette transporters” (Vertex Pharmaceuticals Incorporated, priority 2003, dated 2014).

One may read the EC50 as the concentration giving half of the maximal effect. Usually Emax stands for the size of the effect at its maximum, as opposed to the concentration needed.

This assay deals with T1, ΔF508-CFTR (Homo sapiens, UniProt P13569, DEL508-508).
T1 construct: expressed in transfected cells
Description: Membrane potential optical assay (FRET/VIPR), identification of correction compounds. It counts as cell-based. The note with it: for Emax: relative efficacy. The text has this:
I) Membrane Potential Optical Methods for Assaying ΔF508-CFTR Modulation Properties of Compounds
The optical membrane potential assay utilized voltage-sensitive FRET sensors described by Gonzalez and Tsien (See, Gonzalez, J. E. and R. Y. Tsien (1995) “Voltage sensing by fluorescence resonance energy transfer in single cells” Biophys J 69(4): 1272-80, and Gonzalez, J. E. and R. Y. Tsien (1997) “Improved indicators of cell membrane potential that use fluorescence resonance energy transfer” Chem Biol 4(4): 269-77) in combination with instrumentation for measuring fluorescence changes such as the Voltage/Ion Probe Reader (VIPR) (See, Gonzalez, J. E., K. Oades, et al. (1999) “Cell-based assays and instrumentation for screening ion-channel targets” Drug Discov Today 4(9): 431-439).
These voltage sensitive assays are based on the change in fluorescence resonant energy transfer (FRET) between the membrane-soluble, voltage-sensitive dye, DiSBAC2(3), and a fluorescent phospholipid, CC2-DMPE, which is attached to the outer leaflet of the plasma membrane and acts as a FRET donor. Changes in membrane potential (Vm) cause the negatively charged DiSBAC2(3) to redistribute across the plasma membrane and the amount of energy transfer from CC2-DMPE changes accordingly. The changes in fluorescence emission were monitored using VIPR™ II, which is an integrated liquid handler and fluorescent detector designed to conduct cell-based screens in 96- or 384-well microtiter plates.
Identification of Correction Compounds
To identify small molecules that correct the trafficking defect associated with ΔF508-CFTR; a single-addition HTS assay format was developed. The cells were incubated in serum-free medium for 16 hrs at 37° C. in the presence or absence (negative control) of test compound. As a positive control, cells plated in 384-well plates were incubated for 16 hrs at 27° C. to “temperature-correct” ΔF508-CFTR. The cells were subsequently rinsed 3× with Krebs Ringers solution and loaded with the voltage-sensitive dyes. To activate ΔF508-CFTR, 10 μM forskolin and the CFTR potentiator, genistein (20 μM), were added along with Cl^−-free medium to each well. The addition of Cl^−-free medium promoted Cl^− efflux in response to ΔF508-CFTR activation and the resulting membrane depolarization was optically monitored using the FRET-based voltage-sensor dyes.
NIH3T3 mouse fibroblasts stably expressing ΔF508-CFTR are used for optical measurements of membrane potential. The cells are maintained at 37° C. in 5% CO2 and 90% humidity in Dulbecco's modified Eagle's medium supplemented with 2 mM glutamine, 10% fetal bovine serum, 1×NEAA, β-ME, 1× pen/strep, and 25 mM HEPES in 175 cm^2 culture flasks. For all optical assays, the cells were seeded at 30,000/well in 384-well matrigel-coated plates and cultured for 2 hrs at 37° C. before culturing at 27° C. for 24 hrs. for the potentiator assay. For the correction assays, the cells are cultured at 27° C. or 37° C. with and without compounds for 16-24 hours B) Electrophysiological Assays for assaying ΔF508-CFTR modulation properties of compounds

T1 sequence (P13569 with tags, fused parts or gaps DEL508-508): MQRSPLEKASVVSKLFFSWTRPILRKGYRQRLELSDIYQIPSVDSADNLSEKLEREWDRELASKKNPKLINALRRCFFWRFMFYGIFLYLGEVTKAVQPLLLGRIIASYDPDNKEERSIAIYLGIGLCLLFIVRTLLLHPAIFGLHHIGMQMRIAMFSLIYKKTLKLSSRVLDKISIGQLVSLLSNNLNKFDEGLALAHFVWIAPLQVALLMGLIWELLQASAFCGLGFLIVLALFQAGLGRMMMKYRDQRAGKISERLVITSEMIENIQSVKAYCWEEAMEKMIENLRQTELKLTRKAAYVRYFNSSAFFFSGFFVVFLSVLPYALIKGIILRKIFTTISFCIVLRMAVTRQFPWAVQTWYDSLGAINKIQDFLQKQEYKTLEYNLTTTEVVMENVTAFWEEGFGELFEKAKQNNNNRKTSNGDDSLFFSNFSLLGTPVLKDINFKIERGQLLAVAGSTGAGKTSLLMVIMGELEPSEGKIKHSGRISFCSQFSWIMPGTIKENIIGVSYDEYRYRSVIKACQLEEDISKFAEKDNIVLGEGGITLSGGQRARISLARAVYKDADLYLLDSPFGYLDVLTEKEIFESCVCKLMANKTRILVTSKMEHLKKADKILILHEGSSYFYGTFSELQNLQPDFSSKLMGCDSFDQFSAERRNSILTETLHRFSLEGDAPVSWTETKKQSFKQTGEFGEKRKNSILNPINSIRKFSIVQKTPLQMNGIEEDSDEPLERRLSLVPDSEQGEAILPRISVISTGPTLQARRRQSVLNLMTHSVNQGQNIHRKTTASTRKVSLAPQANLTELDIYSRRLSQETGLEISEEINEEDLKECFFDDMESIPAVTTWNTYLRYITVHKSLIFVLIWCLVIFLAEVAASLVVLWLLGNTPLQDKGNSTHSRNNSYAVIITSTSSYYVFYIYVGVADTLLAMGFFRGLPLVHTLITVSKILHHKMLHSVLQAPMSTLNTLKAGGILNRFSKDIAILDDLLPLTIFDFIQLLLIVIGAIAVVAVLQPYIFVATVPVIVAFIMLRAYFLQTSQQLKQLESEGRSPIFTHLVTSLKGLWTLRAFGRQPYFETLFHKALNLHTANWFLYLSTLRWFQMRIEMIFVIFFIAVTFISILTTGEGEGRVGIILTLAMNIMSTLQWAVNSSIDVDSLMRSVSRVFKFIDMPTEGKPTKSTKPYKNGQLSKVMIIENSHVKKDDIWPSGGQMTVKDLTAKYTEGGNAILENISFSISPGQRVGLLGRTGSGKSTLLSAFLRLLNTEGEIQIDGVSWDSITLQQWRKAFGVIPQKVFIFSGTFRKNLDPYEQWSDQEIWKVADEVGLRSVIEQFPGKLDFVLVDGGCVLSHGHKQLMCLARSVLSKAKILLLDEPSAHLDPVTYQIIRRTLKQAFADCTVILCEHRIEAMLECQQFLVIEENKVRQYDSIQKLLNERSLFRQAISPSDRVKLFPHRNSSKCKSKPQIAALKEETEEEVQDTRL

On to `COc1ccc2nc(C(C)N3CCN(S(=O)(=O)c4ccc(Br)cc4)CC3)n(C)c(=O)c2c1` (stereo not shown) [compound 132], for which the EC50 was < 10 µM and the Emax is > 100%.

`CC(NCCCNS(=O)(=O)c1ccc(Cl)cc1)c1nc2ccccc2c(=O)n1C` (stereo not shown) [compound 173]: the EC50 lay in the range of 25 to 60 µM and the Emax fell in the range of 25 to 100%.

On to `CC(=O)Nc1nc(C)c(S(=O)(=O)N2CCN(C(C)c3nc4ccccc4c(=O)n3C)CC2)s1` (stereo not shown) [compound 243], for which the EC50 was in the range of 25 to 60 µM and the Emax was in the range of 25 to 100%. For the compound `CC(c1nc2cccc(Cl)c2c(=O)n1C)N1CCN(S(=O)(=O)c2ccccc2)CC1` (stereo not shown) [compound 103], the EC50 lay in the range of 10 to 25 µM and the Emax is < 25%.

Regarding `COc1ccc(S(=O)(=O)N2CCN(C3(c4nc(N5CCCCC5)c5ccccc5n4)CC3)CC2)cc1` [compound 387], the EC50 is < 10 µM and the Emax was > 100%. The corresponding values for `CCOC(=O)C1CCN(c2nc(C(C)N3CCN(S(=O)(=O)c4ccc(OC)cc4)CC3)nc3ccccc23)CC1` (stereo not shown) [compound 322] are < 10 µM and > 100%. On to `CCOc1nc(C(C)N2CCN(S(=O)(=O)c3ccc(OC)cc3)CC2)nc2ccccc12` (stereo not shown) [compound 188], for which the EC50 is 10 to 25 µM and the Emax was > 100%. As to `CC(c1nc2ccccc2c(=O)n1C)N1CCN(S(C)(=O)=O)CC1` (stereo not shown) [compound 79], the EC50 lay in the range of 25 to 60 µM and the Emax was < 25%. On the same counts, the results for `COc1ccc(S(=O)(=O)N2CCN(C(C)c3nc4ccccc4c(=O)[nH]3)CC2)cc1` (stereo not shown) [compound 130] are 10 to 25 µM and < 25%. On the same counts, the results for `Cc1ccc(S(=O)(=O)N2CCN(C(C)c3nc4ccccc4c(=O)[nH]3)CC2)cc1` (stereo not shown) [compound 129] are 10 to 25 µM and < 25%.

On to `CC(c1nc2ccccc2c(=O)n1C)N1CCN(S(=O)(=O)c2cccc3nonc23)CC1` (stereo not shown) [compound 264], for which the EC50 lay within 25 to 60 µM and the Emax was < 25%. As to `CC(NC[C@@H]1CCCCN1)c1nc2ccccc2c(=O)n1C` (stereo partly shown) [compound 183], the EC50 is 25 to 60 µM.

Turning to `CC(NCCN(C)S(=O)(=O)c1ccc(Br)cc1)c1nc2ccccc2c(=O)n1C` (stereo not shown) [compound 213], the EC50 lay within 25 to 60 µM and the Emax is < 25%. The corresponding values for `CC(c1nc2cc(Cl)ccc2c(=O)n1C)N1CCN(S(=O)(=O)c2ccc(Br)cc2)CC1` (stereo not shown) [compound 95] are < 10 µM and 25 to 100%.

As for `CCC(c1nc2ccccc2c(=O)[nH]1)N1CCN(S(=O)(=O)c2ccc(OC)cc2)CC1` (stereo not shown) [compound 334], the EC50 lay in the range of 25 to 60 µM and the Emax is 25 to 100%.

`COc1ccc(S(=O)(=O)N2CCN(C(C)c3nc(N4CC=CCC4)c4ccccc4n3)CC2)cc1` (stereo not shown) [compound 392]: the EC50 is < 10 µM and the Emax was > 100%. On the same counts, the results for `CC(c1nc2cc(Cl)ccc2c(=O)n1C)N1CCN(C(=O)c2ccc(F)cc2)CC1` (stereo not shown) [compound 121] are 10 to 25 µM and < 25%.

For `CCCn1c(C(C)N2CCN(S(=O)(=O)c3ccc(F)cc3)CC2)nc2ccccc2c1=O` (stereo not shown) [compound 28], the EC50 was in the range of 10 to 25 µM and the Emax lay in the range of 25 to 100%. The corresponding values for `COc1ccc(S(=O)(=O)N2CCN(C(C)c3nc(N4CCCCCC4)c4ccccc4n3)CC2)cc1` (stereo not shown) [compound 319] are < 10 µM and 25 to 100%. On the same counts, the results for `COc1ccc(S(=O)(=O)N2CCN(C(C)c3nc(N4CCC(C)CC4)c4ccccc4n3)CC2)cc1` (stereo not shown) [compound 320] are < 10 µM and > 100%. For the compound `COc1ccc(S(=O)(=O)N2CCN(C(C)c3nc(OCCN4CCCC4)c4ccccc4n3)CC2)cc1` (stereo not shown) [compound 299], the EC50 lay in the range of 10 to 25 µM and the Emax was in the range of 25 to 100%. The corresponding values for `Cc1ccccc1S(=O)(=O)N1CCN(C(C)c2nc3ccc(Cl)cc3c(=O)n2C)CC1` (stereo not shown) [compound 80] are 10 to 25 µM and 25 to 100%.
